Earlier results in US12109298B2, “Improving the fastness to washing of pigment-containing dyes by using an oxidative pretreatment agent” (Henkel AG & Co. KGaA, priority 2020, dated 2024).
Where two headings read alike, the source gives them in different places.

Key:
[1] = 25° C.
[2] = 5% solution in water

Row | Structure (SMILES) | solubility in water [1] | further results
1 | CCN(Cc1cccc(S(=O)(=O)[O-])c1)c1ccc(C(=C2C=CC(=[N+](CC)Cc3cccc(S(=O)(=O)[O-])c3)C=C2)c2ccccc2S(=O)(=O)[O-])cc1.[Na+].[Na+] [Acid Blue 9] | more than 20 wt. % | 
2 | O=S(=O)([O-])c1ccc(N=Nc2c(O)ccc3ccccc23)cc1.[Na+] [Acid Orange 7, sodium salt of 4-[(2-hydroxy-1-naphthyl)azo]benzene sulfonate] | more than 7 g/L | 
3 | Nc1cc(S(=O)(=O)[O-])cc2cc(S(=O)(=O)[O-])c(N=Nc3ccccc3)c(O)c12.[Na+].[Na+] [Acid Red 33, diantrium salt of 5-amino-4-hydroxy-3-(phenylazo)-naphthalene-2,7-disulphonate] | 2500 µg/mL | 
4 | O=C([O-])c1c(Cl)c(Cl)c(Cl)c(Cl)c1-c1c2c(Br)cc(=O)c(Br)c-2oc2c(Br)c(O)cc(Br)c12.O=C([O-])c1c(Cl)c(Cl)c(Cl)c(Cl)c1-c1c2c(Br)cc(=O)c(Br)c-2oc2c(Br)c(O)cc(Br)c12.[Na+].[Na+] [Acid Red 92, disodium salt of 3,4,5,6-tetrachloro-2-(1,4,5,8-tetrabromo-6-hydroxy-3-oxoxanthen-9-yl)benzoic acid] | greater than 10 g/L | 
5 | O=C([O-])C1=NN(c2ccc(S(=O)(=O)[O-])cc2)C(=O)C1N=Nc1ccc(S(=O)(=O)[O-])cc1.[Na+].[Na+].[Na+] (stereo not drawn) [Acid Yellow 23, trisodium salt of 4,5-dihydro-5-oxo-1-(4-sulfophenyl)-4-((4-sulfophenyl)azo)-1H-pyrazole-3-carboxylic acid] |  | solubility in water ([1]; in words): readily soluble in water
6 | O=P([O-])(O)O.[K+] [Potassium dihydrogen phosphate] |  | pH value [2]: 4.4
